Source: patent US20200308222A1, “ANTIMICROBIAL TETRAPEPTIDES” (DSM IP ASSETS B.V., priority 2017, published 2020)
Non-standard residues stand in square brackets, D forms with d. Residues, ends and D or L forms follow the SMILES beside them. *: point of attachment. 2Nal = N[C@@H](Cc1ccc2ccccc2c1)C(=O)O; d2Nal = N[C@H](Cc1ccc2ccccc2c1)C(=O)O; Butanoyl(4-Ph) = O=C(CCCc1ccccc1)*; Dab = NCC[C@H](N)C(=O)O

Key:
Assay in all cases: Minimum inhibitory concentration (MIC), liquid media method in 96-well plates
B. subtilis (ATCC 6633) = assay type: cell-based, Bacillus subtilis; details: 1,2×10^5 cfu/ml per well; incubated 48 hours at 32,5° C.; turbidity read-out
Procedure: (§1) The peptides are dissolved in culture medium at 400 ppm. A control in the microbiological medium alone and a control consisting of Phenonip® prepared to 5% (v/v) directly in the microbiological medium was used. The determination of minimal inhibitory concentration of each product is performed according to a liquid media method adapted in 96-wells plates. To determine the minimum inhibitory concentration (MIC), the peptides are tested in serial dilutions (½ to ½ for 8 dilutions) directly in the liquid culture medium to favor the growth of bacteria in microplate 96 wells. Then, each point of dilution is contaminated with each strain at about 7×10^5 cfu/ml for S. aureus (ATCC 6538), 5.5×10^5 cfu/ml for P. acnes (ATCC 11827) and 1,2×10^5 cfu/ml for B. subtilis (ATCC 6633) per well. Finally, plates are incubated 48 hours at 32, 5° C.±2.5° C., taking care to respect the respiratory type of each strain. […] The last dilution corresponding to the absence of bacterial growth is taken as minimum inhibitory concentration (MIC) for the microbial strain considered.

S. aureus (ATCC 6538) = assay type: cell-based, Staphylococcus aureus; details: about 7×10^5 cfu/ml per well; incubated 48 hours at 32,5° C.; turbidity read-out
Procedure: as §1

P. acnes (ATCC 11827) = assay type: cell-based, Propionibacterium acnes; details: 5.5×10^5 cfu/ml per well; incubated 48 hours at 32,5° C.; turbidity read-out
Procedure: as §1

SMILES | MIC values B. subtilis (B. subtilis (ATCC 6633)) [ppm] | MIC values S. aureus (S. aureus (ATCC 6538)) [ppm] | MIC values P. acnes (P. acnes (ATCC 11827)) [ppm]
N=C(N)NCCC[C@H](NC(=O)[C@@H](Cc1ccccc1)NC(=O)[C@H](Cc1c[nH]cn1)NC(=O)CCCc1ccccc1)C(=O)N[C@@H](Cc1ccc2ccccc2c1)C(N)=O [I-a, PhBu-His-D-Phe-Arg-L-2NaphAla-NH2 *2TFA] ({Butanoyl(4-Ph)}-H[dF]R[2Nal]-NH2) | 62.5 | 125 | 500
N=C(N)NCCC[C@H](NC(=O)[C@@H](Cc1ccccc1)NC(=O)[C@H](Cc1c[nH]cn1)NC(=O)CCCc1ccccc1)C(=O)N[C@H](Cc1ccc2ccccc2c1)C(N)=O [I-b, PhBu-His-D-Phe-Arg-D-2NaphAla-NH2 *2TFA] ({Butanoyl(4-Ph)}-H[dF]R[d2Nal]-NH2) | 100 | – | 400
COc1ccc(CCCC(=O)N[C@@H](Cc2c[nH]cn2)C(=O)N[C@H](Cc2ccccc2)C(=O)N[C@@H](CCCNC(=N)N)C(=O)N[C@@H](Cc2c[nH]c3ccccc23)C(N)=O)cc1 [I-c, 4-MeO—PhBu-His-D-Phe-Arg-Trp-NH2 × 2 AcOH] | 200 | – | –
CCCN(CCC)C(=O)[C@H](Cc1c[nH]c2ccccc12)NC(=O)[C@H](CCCNC(=N)N)NC(=O)[C@@H](Cc1ccccc1)NC(=O)[C@H](Cc1c[nH]cn1)NC(=O)CCCc1ccccc1 [I-d, PhBu-His-D-Phe-Arg-Trp-N(Propyl)2 *2TFA] | 15.6 | 31.3 | 125
NCC[C@H](NC(=O)[C@@H](Cc1ccccc1)NC(=O)[C@H](Cc1c[nH]cn1)NC(=O)CCCc1ccccc1)C(=O)N[C@@H](Cc1c[nH]c2ccccc12)C(N)=O [I-e, PhBu-His-D-Phe-Dab-Trp-NH2 *2TFA] ({Butanoyl(4-Ph)}-H[dF][Dab]W-NH2) | 400 | – | –
N=C(N)NCCC[C@H](NC(=O)[C@@H](Cc1ccccc1)NC(=O)[C@H](Cc1c[nH]cn1)NC(=O)CCCc1ccccc1)C(=O)N[C@@H](Cc1c[nH]c2ccccc12)C(=O)NCc1ccccc1 [I-f, PhBu-His-D-Phe-Arg-Trp-NH-Bn *2TFA] | 252 | 400 | –
CCCCCCCCNC(=O)[C@H](Cc1c[nH]c2ccccc12)NC(=O)[C@H](CCCNC(=N)N)NC(=O)[C@@H](Cc1ccccc1)NC(=O)[C@H](Cc1c[nH]cn1)NC(=O)CCCc1ccccc1 [I-g, PhBu-His-D-Phe-Arg-Trp-NH-Octyl *2TFA] | 252 | 200 | –
N=C(N)NCCC[C@H](NC(=O)[C@@H](Cc1ccccc1)NC(=O)[C@H](Cc1c[nH]cn1)NC(=O)CCCc1ccccc1)C(=O)N[C@@H](Cc1c[nH]c2ccccc12)C(=O)NCC(O)CO (stereo partly drawn) [I-h, PhBu-His-D-Phe-Arg-Trp-NH—CH2—CH(OH)—CH2OH *2TFA] | 317 | – | –
